Results: paper PMC6669903 (Neuron, 2019)

What was measured:
Tiam1/CaMKII complex = type: cell-based; conditions: bath application (AP5, KN-93) or cotransfection (CaMKIIN)
[1] = tested on: dendritic spines of CA1 pyramidal neurons in hippocampal organotypic slice cultures; assay: structural LTP; type: cell-based, rat
Rac1 = Rac1 activity in spines by FRET-FLIM sensor during sLTP; type: cell-based, rat; conditions: change in lifetime of GFP-Rac1 in stimulated spines; uncaging 0.5 Hz
[2] = tested on: Tiam1 phosphorylation by CaMKII in neurons in dissociated culture; assay: Tiam1 phosphorylation after chemical LTP, Phos-tag SDS-PAGE; type: cell-based, rat; conditions: KN-93 10 µM; glycine 200 µM for 10 min

SMILES | effect on Tiam1/CaMKII interaction after sLTP induction (Tiam1/CaMKII complex) | effect on established sLTP, drug added 5 min after induction ([1]; applied 5 min after sLTP induction) | effect on established sLTP, drug added 15 min after induction ([1]; applied 15 min after sLTP induction) | effect on sLTP, drug added before induction ([1]; applied 30 min before sLTP induction, spines visualized by untagged GFP) | effect on Rac1 activation during sLTP (Rac1) | effect on persistent Tiam1 phosphorylation after chemical LTP [2]
N[C@H](CCCP(=O)(O)O)C(=O)O [AP5, D-(−)-2-Amino-5-phosphonopentanoic acid] | blocked | – | – | – | – | –
O=c1cc(CN2CCOCC2)occ1OCCCCCSc1ccnc2cc(C(F)(F)F)ccc12 [EHT1864] | – | effectively blocked sLTP | effectively blocked sLTP | effectively inhibited sLTP | – | –
COc1ccc(S(=O)(=O)N(CCO)c2ccccc2CN(C)C/C=C/c2ccc(Cl)cc2)cc1 [KN-93] | blocked | – | – | – | effectively blocked the activation of Rac1 | blocked
